Experimental data: PMC9682078, “Structural changes and molecular mechanism study on the inhibitory activity of epigallocatechin against α-glucosidase and α-amylase” (Frontiers in Nutrition, 2022)

Molecular target: T1, α-amylase (Sus scrofa, UniProt P00690)
T1 construct: gene AMY2
T1 sequence (P00690 16-511): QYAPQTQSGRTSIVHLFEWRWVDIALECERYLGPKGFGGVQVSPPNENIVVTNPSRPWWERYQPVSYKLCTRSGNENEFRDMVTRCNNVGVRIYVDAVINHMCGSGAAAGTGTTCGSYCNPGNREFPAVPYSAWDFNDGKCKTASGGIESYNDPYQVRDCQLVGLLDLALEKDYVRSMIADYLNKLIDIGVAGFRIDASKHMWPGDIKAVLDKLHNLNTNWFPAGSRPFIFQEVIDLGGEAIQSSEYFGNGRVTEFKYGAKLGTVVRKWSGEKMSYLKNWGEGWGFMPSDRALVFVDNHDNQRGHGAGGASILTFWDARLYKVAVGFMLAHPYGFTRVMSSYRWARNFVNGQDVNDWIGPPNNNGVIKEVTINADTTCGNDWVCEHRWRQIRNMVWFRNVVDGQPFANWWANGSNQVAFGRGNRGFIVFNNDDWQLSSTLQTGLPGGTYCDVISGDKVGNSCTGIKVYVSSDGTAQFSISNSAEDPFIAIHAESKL
Test: colorimetric DNS starch hydrolysis assay; Lineweaver-Burk kinetics; intrinsic fluorescence quenching
Type: biochemical

## Oc1cc(O)c2c(c1)O[C@H](c1cc(O)c(O)c(O)c1)[C@H](O)C2 [EGC, epigallocatechin]
  IC50: 4.44 mM
